The subject of this series is MCF7 human breast cancer cell line. Description: Cytotoxic activity test, MTT method, MCF7 cells. The series is classed as cell-based. The following applies: for inhibition rate: compound at 50 µM, dissolved in DMSO. An excerpt: Dimethyl sulfoxide (DMSO) was used to dissolve the tested compounds.

The substance neoantimycin E [Compound 6] returned an inhibition rate of 90.53%.

The substance neoantimycin D [Compound 5] displayed an inhibition rate of 91.08%. For the same substance, the “cytotoxic activity (in words)” value (preliminary in vitro test) was “weak cytotoxic activity”.
